In BigSolDB 2.1:

C[C@]12C=CC(=O)C=C1CC[C@@H]1[C@@H]2[C@@H](O)C[C@@]2(C)[C@H]1CC[C@]2(O)C(=O)CO
solubility (mole fraction)
Conditions | in DMF | in NMP | in acetonitrile | in n-dodecane | in n-hexadecane | in n-nonanol | in n-octanol | in n-pentanol | in sec-butanol | in water
293.2 K | 0.00818 | 0.00465 | 0.00219 | 1.44e-05 | 2.15e-05 | 0.000507 | 0.000316 | 0.000283 | 0.000248 | 1.05e-05
298.2 K | 0.00869 | 0.00525 | 0.00236 | 1.64e-05 | 2.35e-05 | 0.000643 | 0.000419 | 0.000358 | 0.000294 | 1.1e-05
303.2 K | 0.00943 | 0.0061 | 0.00255 | 1.87e-05 | 2.61e-05 | 0.000833 | 0.000568 | 0.000449 | 0.000362 | 1.25e-05
308.2 K | 0.0101 | 0.00688 | 0.0028 | 2.16e-05 | 3.01e-05 | 0.000999 | 0.000712 | 0.000559 | 0.000444 | 1.4e-05
313.2 K | 0.0108 | 0.00784 | 0.00305 | 2.45e-05 | 3.4e-05 | 0.00126 | 0.000913 | 0.000699 | 0.00053 | 1.6e-05
318.2 K | 0.0116 | 0.00881 | 0.00334 | 2.79e-05 | 3.88e-05 | 0.00151 | 0.00114 | 0.000881 | 0.000628 | 1.8e-05
323.2 K | 0.0125 | 0.00998 | 0.00364 | 3.28e-05 | 4.5e-05 | 0.00179 | 0.00141 | 0.0011 | 0.00075 | 2e-05
328.2 K | 0.0141 | 0.0114 | 0.00407 | 3.82e-05 | 5.41e-05 | 0.00215 | 0.0018 | 0.00139 | 0.000905 | 2.6e-05
